According to patent publication US20040022861A1, “Process for production of nanoparticles and microparticles by spray freezing into liquid” (priority 2001, published 2004):
Converted amounts (≈) assume the structure as drawn. One block for each compound: values may come before it.

What was measured:
Dissolution study = type: physicochemical
Description: “FeSSIF” means fed state simulated intestinal fluid prepared by a recipe known in the art. This media is used to simulate gastrointestinal conditions. FeSSIF is the dissolution media that the powders produced in the following examples are dispersed into to quantitate the amount of drug dissolved as a function of time.
(§1) Ethyl acetate/water or dichloromethane/water mixtures were used to produce o/w emulsions for SFL micronization, and a tetrahydrofuran/water mixture was used to formulate the feed solutions. Micronized SFL powders were characterized by x-ray diffraction, surface area, scanning and transmission electron microscopy, contact angle and dissolution (SLS 0.75%/Tris 1.21% media).

[1] = Contact angle against dissolution media (SLS/Tris); type: physicochemical
Description: as §1

[2] = Particle size distribution of dry powders (time-of-flight); type: physicochemical
Experimental: (§2) An aliquot of 0.1 g bovine insulin was dissolved in 20 ml HCl (pH=2), the solution was then titrated by 0.1 N NaOH to pH 7.4. The feed solution was then atomized using an ISCO pump by spray freezing into liquid nitrogen. The nozzle used was polyetheretherketone tubing with a diameter of 63.5 μm. The flow rate was 14 ml/min at 4000 psi. The frozen particles were collected and dried in a tray lyophilizer.
The span index is used to described the polydispersity in a given particle size distribution and is defined as (D90-D10)/D50, where D10, D50, and D90 are the respective particle size at 10, 50, 90 percent cumulative percent undersize.

[3] = BET specific surface area; type: physicochemical
Description: The microparticles obtained were discrete and compact with almost spherical shape. […] The protein/polymer ratio has a strong effect on the entrapment efficiency and loading degree of the incorporated protein. The entrapment efficiency was high for all investigated biodegradable polymers. High polymer concentration yielded high entrapment efficiency for all observed biodegradable polymers and is illustrated at FIG. 6. Scanning Electron Micrographs (SEM) were taken of microparticles prepared by the following conditions: […] An adsorption isotherm derived by S. Brunaure, P. H. Emmett, and E.

[4] = Insulin aggregation: covalent insulin dimer (size exclusion HPLC); type: physicochemical; details: for percentage of covalent insulin dimer in the samples: stored at −4° C.
Experimental: as §2, with “lyophilizer. The resulting particles were highly porous. […] The SFL process decreased the level of covalent insulin dimer (Table 3). The mean particle size diameter as determined by time-of-flight measurement was 5.06 microns. SEM photographs reveal that the particle is an aggregate composed of small domains of insulin.” for “lyophilizer.”
(§3) The SFL insulin powder was prepared according to the procedure outlined in Example 1 with same formulation. The SFL insulin powder was stored at −4° C. The samples were taken out at 6, 12 and 24 weeks.
(§4) The products were characterized by different techniques. […] The median aerodynamic particle size was 5.06 μm.

[5] = Chemical stability of insulin: A-21 desamido insulin level (RP-HPLC); type: physicochemical; details: for percentage of A-21 desamido in the samples: stored at −4° C.
Experimental: as §2, with “lyophilizer. The resulting particles were highly porous. […] The SFL process decreased the level of covalent insulin dimer (Table 3). The mean particle size diameter as determined by time-of-flight measurement was 5.06 microns. SEM photographs reveal that the particle is an aggregate composed of small domains of insulin.” for “lyophilizer.”
as §3, §4

[6] = cited from earlier work

Compound: C#C[C@]1(O)CC[C@H]2[C@@H]3CCC4=Cc5oncc5C[C@]4(C)[C@H]3CC[C@@]21C [Danazol]
- danazol dissolved (Dissolution study; FeSSIF media, 60 minutes): 21%
- danazol dissolved (Dissolution study; SLS 0.75%/Tris 1.21% media, 5 minutes): Approximately 53%
- danazol dissolved (Dissolution study; SLS 0.75%/Tris 1.21% media, 60 minutes): about 88%
- Average Contact Angle (S.D.) ([1]; listed as Bulk Danazol): 64.3 (1.1)^2 °
- Average Contact Angle (S.D.) ([1]; listed as bulk micronized danazol): 64.3 °
- M 10(μm) ([2]; dry powders, Table 14): 7.28 μm
- M 90(μm) ([2]; dry powders, Table 14): 51.78 μm
- M 50(μm) ([2]; dry powders, Table 14 and text Example 30): 23.10 μm
- BET specific surface area ([3]; Examples 4, 5, 8): 0.52 m2/g
- Specific Surface Area (m^2/g) ([3]; Table 14 and text Example 30): 0.52 m^2/g

Compound: bovine insulin [Bulk insulin]
- Covalent Insulin Dimer (percent) ([4]; Table 3): 0.25%
- percentage of covalent insulin dimer in the samples ([4]; 12 weeks): 1.18 percentage
- percentage of covalent insulin dimer in the samples ([4]; 24 weeks): 1.15 percentage
- percentage of covalent insulin dimer in the samples ([4]; Initial): 0.5 percentage
- A-21 desamido insulin (percent) ([5]; Table 3): 3.03%
- percentage of A-21 desamido in the samples ([5]; 12 weeks): 2.61 percentage
- percentage of A-21 desamido in the samples ([5]; 24 weeks): 2.72 percentage
- percentage of A-21 desamido in the samples ([5]; Initial): 2.46 percentage
- Mean Particle Size (μm) ([2]; Table 3): 14.24 μm

- CBZ dissolved in water (Dissolution study; water, within 10 minutes): about 4%
- Span Index ([2]; (D90-D10)/D50): 2.94
- D10 (μm) ([2]; time-of-flight, Table 10): 15.56 μm
- D50 (μm) ([2]; time-of-flight, Table 10): 39.70 μm
- D90 (μm) ([2]; time-of-flight, Table 10): 132.33 μm
- mean particle diameter ([2]; time-of-flight, text Example 8): 39.70 μm
Compound: NC(=O)N1c2ccccc2C=Cc2ccccc21 [CBZ, carbamazepine]
- aqueous solubility [6]: 61 µg/mL (≈ 258 µM)
